How the values were obtained:
[1] = molecular target: T1, Lysine-specific histone demethylase 1A (Homo sapiens, UniProt O60341)
Description: (§1) Inhibition of recombinant human LSD1 (172 to 852 residues) using biotin-labelled H3K4me2 (1 to 24 residues) after 1 hr by TR-FRET assay

[2] = molecular target: T2, Amine oxidase [flavin-containing] A (Homo sapiens, UniProt P21397)
T2 sequence (P21397 whole entry): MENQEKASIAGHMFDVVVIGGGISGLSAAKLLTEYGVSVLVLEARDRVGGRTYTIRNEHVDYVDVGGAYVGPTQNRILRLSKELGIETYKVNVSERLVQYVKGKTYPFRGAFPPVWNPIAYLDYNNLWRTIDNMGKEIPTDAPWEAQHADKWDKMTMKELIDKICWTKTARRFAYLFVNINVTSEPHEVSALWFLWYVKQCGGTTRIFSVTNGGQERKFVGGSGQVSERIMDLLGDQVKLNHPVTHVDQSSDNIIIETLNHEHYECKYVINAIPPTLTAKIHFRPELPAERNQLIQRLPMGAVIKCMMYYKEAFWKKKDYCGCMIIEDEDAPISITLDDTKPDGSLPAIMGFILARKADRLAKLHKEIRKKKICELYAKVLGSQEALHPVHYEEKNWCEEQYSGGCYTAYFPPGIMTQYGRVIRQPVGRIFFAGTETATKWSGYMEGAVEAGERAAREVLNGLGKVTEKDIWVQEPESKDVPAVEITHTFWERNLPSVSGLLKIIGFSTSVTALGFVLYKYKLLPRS
Description: (§2) Inhibition of MAOA (unknown origin) by Promega MAO-Glo assay

[3] = system: MV4-11; assay: Antiproliferative activity against human MV4-11 cells after 240 hrs by MTS assay; type: functional, cell-based; conditions: MV4-11, 240 h
[4] = molecular target: Menin/Histone-lysine N-methyltransferase MLL (Homo sapiens, UniProt O00255+Q03164)
Sequence of Menin/Histone-lysine N-methyltransferase MLL (Homo sapiens, UniProt O00255+Q03164) (O00255 whole entry): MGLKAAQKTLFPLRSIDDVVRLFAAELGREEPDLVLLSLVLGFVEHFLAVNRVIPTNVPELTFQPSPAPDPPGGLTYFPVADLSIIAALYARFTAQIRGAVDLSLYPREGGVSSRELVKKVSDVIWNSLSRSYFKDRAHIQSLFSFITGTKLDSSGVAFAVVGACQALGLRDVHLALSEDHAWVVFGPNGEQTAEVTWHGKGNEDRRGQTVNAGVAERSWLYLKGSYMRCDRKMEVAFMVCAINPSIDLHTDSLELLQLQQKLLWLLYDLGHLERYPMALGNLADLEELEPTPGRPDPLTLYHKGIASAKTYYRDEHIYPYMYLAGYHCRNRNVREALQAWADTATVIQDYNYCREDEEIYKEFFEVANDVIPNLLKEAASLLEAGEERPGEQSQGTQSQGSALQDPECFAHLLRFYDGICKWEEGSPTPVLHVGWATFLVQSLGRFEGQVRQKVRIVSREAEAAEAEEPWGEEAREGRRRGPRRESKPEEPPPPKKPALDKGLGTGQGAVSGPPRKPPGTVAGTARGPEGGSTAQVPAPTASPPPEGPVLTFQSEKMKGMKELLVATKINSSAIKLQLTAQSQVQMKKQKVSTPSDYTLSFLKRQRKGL
Sequence of Menin/Histone-lysine N-methyltransferase MLL (Homo sapiens, UniProt O00255+Q03164) (Q03164 1-2718 limits assumed): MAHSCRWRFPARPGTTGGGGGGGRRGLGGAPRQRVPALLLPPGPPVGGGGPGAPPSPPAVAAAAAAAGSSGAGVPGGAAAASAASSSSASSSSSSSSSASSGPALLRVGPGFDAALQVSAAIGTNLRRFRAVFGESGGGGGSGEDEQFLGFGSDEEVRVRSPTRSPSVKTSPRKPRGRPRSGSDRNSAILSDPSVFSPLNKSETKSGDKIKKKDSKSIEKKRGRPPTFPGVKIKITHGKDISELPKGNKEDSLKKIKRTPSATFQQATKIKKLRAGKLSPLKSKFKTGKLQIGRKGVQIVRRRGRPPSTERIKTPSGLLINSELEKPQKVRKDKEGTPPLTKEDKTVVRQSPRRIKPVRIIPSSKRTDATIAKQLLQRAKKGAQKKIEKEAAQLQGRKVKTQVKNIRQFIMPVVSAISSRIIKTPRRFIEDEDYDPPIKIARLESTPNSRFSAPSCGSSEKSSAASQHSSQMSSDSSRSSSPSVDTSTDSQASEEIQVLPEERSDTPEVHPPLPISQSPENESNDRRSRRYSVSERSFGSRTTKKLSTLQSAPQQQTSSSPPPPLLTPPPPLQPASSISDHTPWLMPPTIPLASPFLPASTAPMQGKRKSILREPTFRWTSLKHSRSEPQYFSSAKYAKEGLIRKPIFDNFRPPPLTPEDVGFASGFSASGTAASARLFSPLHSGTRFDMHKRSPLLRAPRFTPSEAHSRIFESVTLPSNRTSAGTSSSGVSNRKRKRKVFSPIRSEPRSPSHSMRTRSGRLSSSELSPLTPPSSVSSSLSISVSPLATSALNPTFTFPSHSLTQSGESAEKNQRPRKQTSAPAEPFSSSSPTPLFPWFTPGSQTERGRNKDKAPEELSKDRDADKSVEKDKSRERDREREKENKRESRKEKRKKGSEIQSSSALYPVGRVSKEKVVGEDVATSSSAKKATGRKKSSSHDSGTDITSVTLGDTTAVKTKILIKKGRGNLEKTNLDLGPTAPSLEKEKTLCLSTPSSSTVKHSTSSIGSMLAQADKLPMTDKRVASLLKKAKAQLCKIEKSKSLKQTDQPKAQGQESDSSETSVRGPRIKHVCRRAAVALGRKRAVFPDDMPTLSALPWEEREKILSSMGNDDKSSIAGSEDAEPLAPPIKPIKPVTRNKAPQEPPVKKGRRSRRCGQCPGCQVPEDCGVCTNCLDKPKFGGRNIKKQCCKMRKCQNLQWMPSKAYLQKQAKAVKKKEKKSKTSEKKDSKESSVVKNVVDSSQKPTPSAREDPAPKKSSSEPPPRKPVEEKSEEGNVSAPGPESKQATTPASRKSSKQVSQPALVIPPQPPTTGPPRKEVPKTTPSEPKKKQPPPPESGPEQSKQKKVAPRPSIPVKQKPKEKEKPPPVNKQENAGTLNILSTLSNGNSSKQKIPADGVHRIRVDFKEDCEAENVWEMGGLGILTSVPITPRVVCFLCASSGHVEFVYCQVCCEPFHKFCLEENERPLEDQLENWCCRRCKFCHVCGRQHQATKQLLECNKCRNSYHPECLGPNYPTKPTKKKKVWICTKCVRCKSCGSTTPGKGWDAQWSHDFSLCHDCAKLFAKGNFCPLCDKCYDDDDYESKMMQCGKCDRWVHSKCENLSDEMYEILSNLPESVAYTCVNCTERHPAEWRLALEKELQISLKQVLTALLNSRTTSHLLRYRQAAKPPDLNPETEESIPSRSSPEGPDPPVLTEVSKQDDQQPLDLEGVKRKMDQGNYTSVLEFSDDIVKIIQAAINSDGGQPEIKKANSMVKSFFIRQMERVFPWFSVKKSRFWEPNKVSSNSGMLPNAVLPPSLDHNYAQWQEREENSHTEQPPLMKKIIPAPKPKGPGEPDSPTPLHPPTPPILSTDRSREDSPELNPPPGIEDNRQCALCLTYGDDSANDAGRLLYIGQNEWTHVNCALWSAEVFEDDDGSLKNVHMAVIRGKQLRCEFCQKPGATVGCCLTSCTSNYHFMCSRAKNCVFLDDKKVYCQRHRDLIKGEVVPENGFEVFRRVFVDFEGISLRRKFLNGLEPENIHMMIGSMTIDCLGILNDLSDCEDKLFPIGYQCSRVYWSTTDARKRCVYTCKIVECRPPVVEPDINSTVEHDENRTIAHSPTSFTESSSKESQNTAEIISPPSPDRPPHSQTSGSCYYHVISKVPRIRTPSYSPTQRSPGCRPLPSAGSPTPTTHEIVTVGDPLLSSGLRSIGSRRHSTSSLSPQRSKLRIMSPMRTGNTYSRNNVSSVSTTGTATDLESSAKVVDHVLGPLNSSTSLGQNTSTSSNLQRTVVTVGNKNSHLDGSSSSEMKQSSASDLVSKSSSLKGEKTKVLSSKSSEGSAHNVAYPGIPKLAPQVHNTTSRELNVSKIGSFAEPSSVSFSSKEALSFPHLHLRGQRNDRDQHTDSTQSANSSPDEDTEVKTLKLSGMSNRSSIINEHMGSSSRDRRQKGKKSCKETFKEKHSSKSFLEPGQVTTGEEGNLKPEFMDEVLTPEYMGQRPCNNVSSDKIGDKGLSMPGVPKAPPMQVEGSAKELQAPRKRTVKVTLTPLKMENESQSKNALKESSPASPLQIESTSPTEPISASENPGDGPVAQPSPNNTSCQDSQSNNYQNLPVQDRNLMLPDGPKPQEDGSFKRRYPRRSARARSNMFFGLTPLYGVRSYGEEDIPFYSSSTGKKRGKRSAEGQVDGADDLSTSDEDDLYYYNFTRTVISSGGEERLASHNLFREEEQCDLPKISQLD
Sequence of Menin/Histone-lysine N-methyltransferase MLL (Homo sapiens, UniProt O00255+Q03164) (Q03164 2719-3969 limits assumed): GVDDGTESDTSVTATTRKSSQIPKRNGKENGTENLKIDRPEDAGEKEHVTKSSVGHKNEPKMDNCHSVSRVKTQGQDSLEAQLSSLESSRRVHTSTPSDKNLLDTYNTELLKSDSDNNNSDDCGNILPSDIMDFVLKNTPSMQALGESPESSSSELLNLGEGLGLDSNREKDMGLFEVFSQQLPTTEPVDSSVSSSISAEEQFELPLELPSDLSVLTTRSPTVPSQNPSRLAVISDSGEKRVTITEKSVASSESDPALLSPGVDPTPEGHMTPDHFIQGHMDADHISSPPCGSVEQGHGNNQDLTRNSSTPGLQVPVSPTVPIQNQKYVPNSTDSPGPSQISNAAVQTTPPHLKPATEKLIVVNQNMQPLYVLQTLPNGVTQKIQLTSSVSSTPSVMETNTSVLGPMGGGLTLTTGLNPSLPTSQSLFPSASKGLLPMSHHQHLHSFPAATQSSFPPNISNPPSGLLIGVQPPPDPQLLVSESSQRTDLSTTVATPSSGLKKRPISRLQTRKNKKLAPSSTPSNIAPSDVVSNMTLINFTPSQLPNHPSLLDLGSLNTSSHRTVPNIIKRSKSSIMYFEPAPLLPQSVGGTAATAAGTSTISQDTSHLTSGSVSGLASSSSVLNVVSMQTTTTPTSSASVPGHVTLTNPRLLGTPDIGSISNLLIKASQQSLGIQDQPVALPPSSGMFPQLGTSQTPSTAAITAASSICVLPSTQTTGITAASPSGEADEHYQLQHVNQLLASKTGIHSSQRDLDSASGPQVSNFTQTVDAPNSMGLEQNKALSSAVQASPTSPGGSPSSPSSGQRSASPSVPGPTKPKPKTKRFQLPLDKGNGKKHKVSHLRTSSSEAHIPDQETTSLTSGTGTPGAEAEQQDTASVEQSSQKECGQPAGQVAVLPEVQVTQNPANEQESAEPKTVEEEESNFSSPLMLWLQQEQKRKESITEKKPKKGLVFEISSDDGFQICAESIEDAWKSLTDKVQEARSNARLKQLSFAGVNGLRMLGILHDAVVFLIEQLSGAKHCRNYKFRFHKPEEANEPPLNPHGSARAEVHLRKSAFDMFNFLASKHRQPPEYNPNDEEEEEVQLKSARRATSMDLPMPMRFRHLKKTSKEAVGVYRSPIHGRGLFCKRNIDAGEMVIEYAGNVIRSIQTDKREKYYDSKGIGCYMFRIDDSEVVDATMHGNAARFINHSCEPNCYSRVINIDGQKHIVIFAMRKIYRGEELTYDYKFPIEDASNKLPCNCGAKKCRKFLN
Description: (§3) Inhibition of full length human menin/FAM-tagged MLL1 (unknown origin) protein-protein interaction after 15 mins by fluorescence polarization assay

[5] = molecular target: T3, Amine oxidase [flavin-containing] B (Homo sapiens, UniProt P27338)
T3 sequence (P27338 whole entry): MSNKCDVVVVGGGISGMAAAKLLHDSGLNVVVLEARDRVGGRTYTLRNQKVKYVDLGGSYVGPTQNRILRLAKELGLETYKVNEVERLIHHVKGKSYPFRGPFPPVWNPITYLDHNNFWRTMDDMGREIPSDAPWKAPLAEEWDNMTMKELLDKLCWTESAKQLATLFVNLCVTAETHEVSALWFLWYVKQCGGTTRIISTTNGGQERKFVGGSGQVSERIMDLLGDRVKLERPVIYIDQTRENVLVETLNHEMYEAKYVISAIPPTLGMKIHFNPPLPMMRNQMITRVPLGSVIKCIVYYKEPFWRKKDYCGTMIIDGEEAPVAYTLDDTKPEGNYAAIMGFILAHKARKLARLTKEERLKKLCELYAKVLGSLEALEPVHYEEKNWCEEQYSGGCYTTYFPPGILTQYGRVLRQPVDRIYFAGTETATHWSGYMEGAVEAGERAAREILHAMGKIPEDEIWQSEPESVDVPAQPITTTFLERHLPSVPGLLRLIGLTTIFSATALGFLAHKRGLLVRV
Description: (§4) Inhibition of MAOB (unknown origin) by Promega MAO-Glo assay

[6] = molecular target: Menin/Histone-lysine N-methyltransferase MLL (Homo sapiens, UniProt O00255)
Sequence of Menin/Histone-lysine N-methyltransferase MLL (Homo sapiens, UniProt O00255) (O00255 whole entry): as the sequence (O00255 whole entry) above
Sequence of Menin/Histone-lysine N-methyltransferase MLL (Homo sapiens, UniProt O00255) (Q03164 1-2718 partner limits assumed): as the sequence (Q03164 1-2718 limits assumed) above
Sequence of Menin/Histone-lysine N-methyltransferase MLL (Homo sapiens, UniProt O00255) (Q03164 2719-3969 partner limits assumed): as the sequence (Q03164 2719-3969 limits assumed) above
Description: as §3

[7] = system: MV4-11; assay: cells; conditions: Homo sapiens, MV4-11, 168 h
Description: Antiproliferative activity against human MV4-11 cells after 168 hrs by MTS assay

[8] = molecular target: T2, Amine oxidase [flavin-containing] A; remark: listed apart in the source
Description: as §2

[9] = molecular target: T1, Lysine-specific histone demethylase 1A; remark: listed apart in the source
Description: as §1

[10] = molecular target: T3, Amine oxidase [flavin-containing] B; remark: listed apart in the source
Description: as §4

[11] = molecular target: T1, Lysine-specific histone demethylase 1A; assay: Inhibition of LSD1 in human MV4-11 cells assessed as increase in CD86 mRNA expression at 500 nM by SYBR Green dye-bsed RT-qPCR analysis relative to control; type: cell-based
[12] = molecular target: T1, Lysine-specific histone demethylase 1A; assay: Inhibition of LSD1 in human MV4-11 cells assessed as increase in CD86 mRNA expression at 100 nM by SYBR Green dye-bsed RT-qPCR analysis relative to control; type: cell-based

Structure (SMILES) | IC50 [1] [µM] | IC50 [2] [µM] | IC50 [3] [µM] | IC50 [4] | IC50 [5] [µM] | IC50 [6] [µM] | IC50 [7] [µM] | IC50 [8] | IC50 [9] | IC50 [10] | fold change (FC) [11] | fold change (FC) [12]
O=C(O)c1ccc(CN2CCC(CN[C@@H]3C[C@H]3c3ccccc3)CC2)cc1 [GSK2879552] | 1.2 | > 100 | 1.16 | Not Active | > 100 | – | – | – | – | – | – | –
Fc1ccc([C@@H]2C[C@H]2N[C@H]2CC[C@H](Nc3ncnc4sc(CC(F)(F)F)cc34)CC2)cc1F | 0.146 | 47.5 | – | – | 71.6 | > 100 | 2.01 | – | – | – | – | –
CC1(C)CN=C(N2CCN(c3ncnc4sc(CC(F)(F)F)cc34)CC2)S1 | – | – | – | – | – | – | 2.6 | Not Active | Not Active | Not Active | – | –
FC(F)(F)Cc1cc2c(N[C@H]3CC[C@H](N[C@@H]4C[C@H]4c4ccccc4)CC3)ncnc2s1 | 0.303 | 65.9 | – | – | > 100 | 36.9 | 0.49 | – | – | – | 16.4 | –
FC(F)(F)Cc1cc2c(N3CCC(CN[C@@H]4C[C@H]4c4ccccc4)CC3)ncnc2s1 | 0.0844 | 2.23 | – | – | 1.16 | 17.3 | 11.4 | – | – | – | – | –
FC(F)(F)Cc1cc2c(N[C@H]3CC[C@@H](N[C@H]4C[C@@H]4c4ccccc4)CC3)ncnc2s1 | 0.242 | > 100 | – | – | 75.6 | 24.7 | 3.42 | – | – | – | – | –
FC(F)(F)Cc1cc2c(N3CCC(N[C@@H]4C[C@H]4c4ccccc4)CC3)ncnc2s1 | 0.211 | 12.5 | – | – | 40.3 | 10.2 | 0.29 | – | – | – | 22.3 | –
FC(F)(F)Cc1cc2c(N3CCC(N[C@H]4C[C@@H]4c4ccccc4)CC3)ncnc2s1 | 0.692 | 8.27 | – | – | 36.7 | 34.5 | 7.31 | – | – | – | – | –
Fc1ccc([C@@H]2C[C@H]2N[C@H]2CC[C@@H](Nc3ncnc4sc(CC(F)(F)F)cc34)CC2)cc1F | 0.0661 | 40.9 | – | – | 1.21 | 2.13 | 0.51 | – | – | – | – | 7.59
Fc1ccc([C@@H]2C[C@H]2NC2CCN(c3ncnc4sc(CC(F)(F)F)cc34)CC2)cc1F | 0.241 | 56.4 | – | – | 95.6 | > 100 | > 100 | – | – | – | – | –
FC(F)(F)Cc1cc2c(N[C@H]3CC[C@H](CN[C@H]4C[C@@H]4c4ccccc4)CC3)ncnc2s1 | 0.184 | 8.57 | – | – | 22 | > 100 | 5.55 | – | – | – | – | –
FC(F)(F)Cc1cc2c(N[C@H]3CC[C@H](N[C@H]4C[C@@H]4c4ccccc4)CC3)ncnc2s1 | 0.187 | 12.9 | – | – | 28.8 | > 100 | 3.6 | – | – | – | – | –
FC(F)(F)Cc1cc2c(N[C@H]3CC[C@H](CN[C@@H]4C[C@H]4c4ccccc4)CC3)ncnc2s1 | 0.109 | 4.1 | – | – | 4.81 | > 100 | 2.96 | – | – | – | – | –
Fc1ccc([C@@H]2C[C@H]2NCC2CCN(c3ncnc4sc(CC(F)(F)F)cc34)CC2)cc1F | 0.252 | 20.8 | – | – | 49.5 | 30.9 | > 100 | – | – | – | – | –
FC(F)(F)Cc1cc2c(N3CCC(CN[C@H]4C[C@@H]4c4ccccc4)CC3)ncnc2s1 | 0.061 | 9.19 | – | – | 9.63 | > 100 | 5.97 | – | – | – | – | –
Fc1ccc([C@@H]2C[C@H]2NC[C@H]2CC[C@H](Nc3ncnc4sc(CC(F)(F)F)cc34)CC2)cc1F | 0.36 | 21 | – | – | 20.4 | > 100 | 6.96 | – | – | – | – | –
FC(F)(F)Cc1cc2c(N[C@H]3CC[C@@H](N[C@@H]4C[C@H]4c4ccccc4)CC3)ncnc2s1 | 0.124 | 4.55 | – | – | 6.05 | 50.7 | 2.49 | – | – | – | – | –

From ChEMBL document CHEMBL4368922 (Bioorg Med Chem Lett, 2019)
